Laboratory results published in ChEMBL document CHEMBL1201862, “PubChem BioAssay data set” (2004).
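Results reflect a 48-hour exposure of cells in 96-well plates to compound at five concentrations. GI50 marks 50% less growth.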 Activity calls are given as the source filed them. Rule as the data show it: active = GI50 up to about 1.1 µM and inactive = higher.

Legend:
Assay in all cases: inhibition of tumour cell growth, NCI panel, 48 h
NCI-H522 = test system: NCI-H522
Malme-3M = test system: Malme-3M
A549 = test system: A549
OVCAR-5 = test system: OVCAR-5
CAKI-1 = test system: CAKI-1
EKVX = test system: EKVX
Hs-578T = test system: Hs-578T
IGROV-1 = test system: IGROV-1
HCT-116 = test system: HCT-116
NCI-H226 = test system: NCI-H226
NCI-H23 = test system: NCI-H23
BT-549 = test system: BT-549
HOP-62 = test system: HOP-62
K562 = test system: K562
SN12C = test system: SN12C
HCT-15 = test system: HCT-15
LOX IMVI = test system: LOX IMVI
PC-3 = test system: PC-3
SNB-19 = test system: SNB-19

Row | SMILES | GI50 (NCI-H522) | GI50 (Malme-3M) | GI50 (A549) | GI50 (OVCAR-5) | GI50 (CAKI-1) | GI50 (EKVX) | GI50 (Hs-578T) | GI50 (IGROV-1) | GI50 (HCT-116) | GI50 (NCI-H226) | GI50 (NCI-H23) | GI50 (BT-549) | GI50 (HOP-62) | GI50 (K562) | GI50 (SN12C) | GI50 (HCT-15) [µM] | GI50 (LOX IMVI) | GI50 (PC-3) | GI50 (SNB-19)
1 | CC1(C)NC2C(=O)c3c([nH]c4ccccc34)[C@]3(C)CCC1CC23 (some centres undefined) | > 100 µM (inactive) | > 100 µM (inactive) | > 100 µM (inactive) | > 100 µM (inactive) | > 100 µM (inactive) | > 100 µM (inactive) | > 100 µM (inactive) | > 100 µM (inactive) | > 100 µM (inactive) | > 100 µM (inactive) | > 100 µM (inactive) | > 100 µM (inactive) | > 100 µM (inactive) | 96.8 µM (inactive) | > 100 µM (inactive) | 83 | > 100 µM (inactive) | > 100 µM (inactive) | 
2 | CC(=O)Nc1ccc2c(c1)nc1c3ccccc3ccn21 | > 100 µM (inactive) | > 100 µM (inactive) | > 100 µM (inactive) | > 100 µM (inactive) | 96.4 µM (inactive) | > 100 µM (inactive) | > 100 µM (inactive) | > 100 µM (inactive) | 55.6 µM (inactive) | > 100 µM (inactive) | > 100 µM (inactive) | > 100 µM (inactive) | 50.6 µM (inactive) | 56.1 µM (inactive) | > 100 µM (inactive) | > 100 | > 100 µM (inactive) | > 100 µM (inactive) | > 100 µM (inactive)
3 | CCN(CC)C(=S)SNc1ccc(S(N)(=O)=O)cc1 | 0.0755 µM (active) | 42.1 µM (inactive) | 74.6 µM (inactive) | 28.4 µM (inactive) | 36.8 µM (inactive) | > 100 µM (inactive) | > 100 µM (inactive) | 2.11 µM (inactive) | 47.3 µM (inactive) | > 100 µM (inactive) | > 100 µM (inactive) | 67.8 µM (inactive) | 69.8 µM (inactive) | > 100 µM (inactive) | 68.1 µM (inactive) | > 77.4 | 38.9 µM (inactive) | 47.8 µM (inactive) | > 83.4 µM (inactive)
4 | CCN(CC)CCOc1ccc(N2C(=O)c3cc(OC)c(OC)cc3C2=O)cc1 | > 100 µM (inactive) | > 100 µM (inactive) | > 100 µM (inactive) | > 100 µM (inactive) | > 100 µM (inactive) | > 100 µM (inactive) | > 100 µM (inactive) | > 100 µM (inactive) | > 100 µM (inactive) | > 100 µM (inactive) | > 100 µM (inactive) | > 100 µM (inactive) | > 100 µM (inactive) | > 100 µM (inactive) | > 100 µM (inactive) | > 100 | > 100 µM (inactive) | > 100 µM (inactive) | > 100 µM (inactive)
5 | Brc1ccc(-c2[nH]c3ccccc3c2/C=N\Nc2ccc(-c3nc4ccccc4[nH]3)cc2)cc1 | < 0.01 µM (active) | < 0.01 µM (active) | < 0.01 µM (active) | < 0.0448 µM (active) | < 0.01 µM (active) |  | < 0.01 µM (active) | < 0.01 µM (active) | < 0.01 µM (active) | < 0.01 µM (active) | < 0.01 µM (active) | 2.08 µM (inactive) | < 0.01 µM (active) | < 0.01 µM (active) | < 0.01 µM (active) | < 0.01 | < 0.01 µM (active) | < 0.01 µM (active) | < 0.01 µM (active)
6 | CC(C)n1c2c(c3ccccc3c1=O)C(=O)c1ccccc1-2 | > 100 µM (inactive) | > 100 µM (inactive) | > 100 µM (inactive) | > 100 µM (inactive) | > 100 µM (inactive) | > 100 µM (inactive) | > 100 µM (inactive) | > 100 µM (inactive) | > 100 µM (inactive) | > 100 µM (inactive) | > 100 µM (inactive) | > 100 µM (inactive) | > 100 µM (inactive) | > 100 µM (inactive) | > 100 µM (inactive) | > 100 | > 100 µM (inactive) | > 100 µM (inactive) | > 100 µM (inactive)
7 | Cc1ccc(S(=O)(=O)n2cc(/C=C/C#N)c(-c3cn(S(=O)(=O)c4ccc(C)cc4)cc3-c3cn(S(=O)(=O)c4ccc(C)cc4)cc3/C=C/C#N)c2)cc1 | > 100 µM (inactive) | > 100 µM (inactive) |  | > 100 µM (inactive) | > 100 µM (inactive) | > 100 µM (inactive) | 90.2 µM (inactive) | > 100 µM (inactive) | > 100 µM (inactive) | > 100 µM (inactive) | 87.7 µM (inactive) | > 100 µM (inactive) | > 100 µM (inactive) | 57.4 µM (inactive) | > 100 µM (inactive) | > 100 | 93.8 µM (inactive) | 94.2 µM (inactive) | > 100 µM (inactive)
8 | CO/C(N)=C(C#N)/N=C/c1cccs1 | 18.4 µM (inactive) | 35.3 µM (inactive) | > 100 µM (inactive) | > 100 µM (inactive) | 24.3 µM (inactive) | 42.4 µM (inactive) | 66.2 µM (inactive) | 77.6 µM (inactive) | 42.2 µM (inactive) | > 100 µM (inactive) | > 100 µM (inactive) | 95.1 µM (inactive) | 98.4 µM (inactive) | 42.2 µM (inactive) | > 100 µM (inactive) | 45.7 | 42.6 µM (inactive) | > 100 µM (inactive) | > 100 µM (inactive)
9 | O=C(O)C1=NN(c2ccc(S(=O)(=O)O)cc2)C2(C1)C(Cl)C(=O)N2c1nc2ccccc2s1 (centres undefined) | 10.7 µM (inactive) | 20.5 µM (inactive) | 16.6 µM (inactive) | 17.1 µM (inactive) | 15.4 µM (inactive) | 16 µM (inactive) | 47.6 µM (inactive) | 7.83 µM (inactive) | 16.5 µM (inactive) | 16.5 µM (inactive) | 14.4 µM (inactive) | 17.4 µM (inactive) | 12.5 µM (inactive) | 22.1 µM (inactive) | 17.8 µM (inactive) | 20.6 | 2.99 µM (inactive) | 16.6 µM (inactive) | 21.3 µM (inactive)
10 | CC(=O)Nc1ccc(Cc2ccc3nc(O)cc(C)c3c2)cc1 | 48.8 µM (inactive) | 87.7 µM (inactive) | > 100 µM (inactive) | > 100 µM (inactive) | 63.5 µM (inactive) | 65.3 µM (inactive) | 85.1 µM (inactive) | 61.2 µM (inactive) | 83.8 µM (inactive) | > 100 µM (inactive) | > 100 µM (inactive) | > 100 µM (inactive) | 33.8 µM (inactive) | > 100 µM (inactive) | 64.6 µM (inactive) | > 100 | > 100 µM (inactive) | 50.5 µM (inactive) | 63.5 µM (inactive)
11 | O=[N+]([O-])c1ccc(Cl)cc1/C=N/C12CC3CC(CC(C3)C1)C2 | > 100 µM (inactive) | 43.6 µM (inactive) | > 96.8 µM (inactive) | > 100 µM (inactive) | > 100 µM (inactive) | > 100 µM (inactive) | 51.8 µM (inactive) | 55.7 µM (inactive) | 5.24 µM (inactive) | 61.5 µM (inactive) | 50.9 µM (inactive) | > 55.7 µM (inactive) | 60.8 µM (inactive) | 4.98 µM (inactive) | 51.6 µM (inactive) | 25.6 | 19.6 µM (inactive) | 35.9 µM (inactive) | 59.6 µM (inactive)
12 | Cc1nnc(N)nc1/C=C\c1cccs1 | 4.06 µM (inactive) | 13.4 µM (inactive) | 27.7 µM (inactive) | 21.8 µM (inactive) | 34.2 µM (inactive) | 13.3 µM (inactive) | 19.9 µM (inactive) | 12 µM (inactive) | 17.3 µM (inactive) | 17.5 µM (inactive) | 17.6 µM (inactive) | 42.9 µM (inactive) | 16.7 µM (inactive) | 23.4 µM (inactive) | > 10 µM (inactive) | 10.2 | 29.6 µM (inactive) | 17.2 µM (inactive) | 33.6 µM (inactive)
13 | O=C(CN1CCNCCN(CC(=O)N2CCCCC2)CCNCC1)N1CCCCC1 | 40.6 µM (inactive) | > 100 µM (inactive) | 50.8 µM (inactive) | > 100 µM (inactive) | > 100 µM (inactive) | > 100 µM (inactive) | > 100 µM (inactive) | 33.5 µM (inactive) | 42.5 µM (inactive) | > 100 µM (inactive) |  | > 100 µM (inactive) | > 100 µM (inactive) | 40.3 µM (inactive) | > 100 µM (inactive) | > 100 | > 100 µM (inactive) | > 100 µM (inactive) | > 100 µM (inactive)
14 | Cc1c(C)c(C)c(Cn2[nH]c(=O)n(C)c2=O)c(C)c1C | > 100 µM (inactive) | > 100 µM (inactive) | > 100 µM (inactive) |  | > 100 µM (inactive) | > 100 µM (inactive) | > 100 µM (inactive) | > 100 µM (inactive) | > 100 µM (inactive) | > 100 µM (inactive) | > 100 µM (inactive) | > 100 µM (inactive) | > 100 µM (inactive) | > 100 µM (inactive) | > 100 µM (inactive) | > 100 | > 100 µM (inactive) | > 100 µM (inactive) | > 100 µM (inactive)
15 | N#Cc1c(Cl)c2cc([N+](=O)[O-])ccc2n2c1nc1ccccc12 | 2.54 µM (inactive) | 6.85 µM (inactive) | 35.8 µM (inactive) | 4.05 µM (inactive) | 2.14 µM (inactive) | 15.8 µM (inactive) | 7.69 µM (inactive) |  | 3.17 µM (inactive) | 10.6 µM (inactive) | 9.98 µM (inactive) | 19.5 µM (inactive) | 18.2 µM (inactive) | 1.85 µM (inactive) | 4.44 µM (inactive) | 0.933 | 1.87 µM (inactive) | 5.46 µM (inactive) | 13.6 µM (inactive)
